Values of other authors, collected in patent US6641838B2, “Effervescent drug delivery system for oral administration” (Cima Labs Inc., priority 1998, dated 2003).

Conditions: in vivo, po

Q: For CNC1(c2ccccc2Cl)CCCCC1=O (stereo not shown) [Ketamine], which “Bioavailability (%)” value is on record?
A: 20 ± 7%

Q: Which “Bioavailability (%)” value does the source give for Oc1ccc2c3c1O[C@H]1[C@@H](O)CC[C@@]4(O)[C@@H](C2)N(CC2CCC2)CC[C@]314 [Nalbuphine] here?
A: 25 ± 16%

Q: What about the average bioavailability of the same compound?
A: approximately 17%

Q: What about the “range of bioavailability (inter- and intrasubject variability)” value of the same compound?
A: 6-40%

Q: For CN(C)C(=O)Oc1ccc[n+](C)c1 [Pyridostigmine], which “Bioavailability (%)” value is on record?
A: 14 ± 3%

Q: With Methyldopa as the compound, how does the “Bioavailability (%)” value read?
A: 25 ± 16%

Q: And the average bioavailability?
A: 25%

Same assay, conditions: orally administered drug, conventional dosage forms; examples of drugs with poor bioavailability

Q: For Nc1nc2c(ncn2COCCO)c(=O)[nH]1 [Acyclovir], which “Bioavailability (%)” value is on record?
A: 15 − 30%

Q: Which “Bioavailability (%)” value does the source give for CC(=O)OC[C@H]1O[C@@H]([S-])[C@H](OC(C)=O)[C@@H](OC(C)=O)[C@@H]1OC(C)=O.CCP(CC)CC.[Au+] [Auranofin] here?
A: 15 − 25%

Q: With CC[N+](C)(C)Cc1ccccc1Br [Bretylium] as the compound, how does the “Bioavailability (%)” value read?
A: 23 ± 9%

Q: For Nc1ccn([C@@H]2O[C@H](CO)[C@@H](O)[C@@H]2O)c(=O)n1 [Cytarabine], which “Bioavailability (%)” value is on record?
A: 20%

Q: For CN(C)CCC=C1c2ccccc2COc2ccccc21 [Doxepin], which “Bioavailability (%)” value is on record?
A: 27 ± 10%

Q: For NNc1nncc2ccccc12 [Hydralazine], which “Bioavailability (%)” value is on record?
A: 16 − 35%

Q: For CC(CCc1ccccc1)NCC(O)c1ccc(O)c(C(N)=O)c1 (stereo not shown) [Labetalol], which “Bioavailability (%)” value is on record?
A: 18 ± 5%

Q: Which “Bioavailability (%)” value does the source give for Sc1ncnc2nc[nH]c12 [Mercaptopurine] here?
A: 12 ± 7%

Q: With C=CCN1CC[C@]23c4c5ccc(O)c4O[C@H]2C(=O)CC[C@@]3(O)[C@H]1C5 [Naloxone] as the compound, how does the “Bioavailability (%)” value read?
A: 2%

Q: With CC(=O)CCCCn1c(=O)c2c(ncn2C)n(C)c1=O [Pentoxifylline] as the compound, how does the “Bioavailability (%)” value read?
A: 19 ± 13%

Q: Which “Bioavailability (%)” value does the source give for Cc1cc2nc3c(=O)[nH]c(=O)nc-3n(C[C@H](O)[C@H](O)[C@H](O)CO)c2cc1C [Riboflavin] here?
A: 11%

Q: With CC(C)(C)NCC(O)c1cc(O)cc(O)c1 (stereo not shown) [Terbutaline] as the compound, how does the “Bioavailability (%)” value read?
A: 14 ± 2%
